“Also recorded” adds a separate entry of the source. Non-standard residues stand in square brackets, D forms with d. No end group written: not given here.
Tested on: mouse retinal angiogenesis
Assay: Mouse model for inducing retinal angiogenesis using oxygen partial pressure (75% oxygen, then normal 20%); FITC-dextran fluorescence microscopy of retina
Type: in vivo
Settings: intraperitoneally; for retinal blood vessels observed (Example 2): FIG. 4; for retinal blood vessels observed (Example 2) / retinal blood vessels observed (Example 3): dose not given; for effect compared between polypeptides SEQ ID NOs: 1, 2 and SEQ ID NO: 3 (Example 2): FIG. 4 versus FIG. 2; for retinal blood vessels observed (Example 3): FIG. 2 and FIG. 5
Procedure: For this purpose, a mouse was kept for 5 days under a high oxygen environment with a constant 75% oxygen partial pressure 7 days after the mouse was born in an apparatus that can adjust an oxygen partial pressure, and then kept under a 20% oxygen pressure which is a normal oxygen partial pressure. […] In order to observe the blood vessels, 50 mg of FITC-dextran having a molecular weight of 2×10^6 was dissolved in 1 ml of saline, and the resultant solution was injected through the left ventricle. The mouse eyeball was extracted immediately after the injection. The extracted eyeball was washed with saline, fixed with 1% paraformaldehyde for 4 to 24 hours, and then a lens was removed from the eyeball. Then, the resultant mouse retina was evenly spread over a glass slide, and the glass slide was sealed with glycerine-gelatin, and then observed using a fluorescence microscope. The degree on abnormal vessel, avascular lesion and vascular leakage caused by the retinopathy was digitalized and the retinopathy score was compared.

| Substance | retinal blood vessels observed (Example 2) | effect compared between polypeptides SEQ ID NOs: 1, 2 and SEQ ID NO: 3 (Example 2) | effect compared with TP508 (SEQ ID NO: 3) (Example 3) | retinal blood vessels observed (Example 3) |
| --- | --- | --- | --- | --- |
| H-Gly-Phe-Gly-Arg-Gly-Asp-Ser-Pro-Cys-Ala-OH (H-GFGRGDSPCA-OH) [SEQ ID NO: 2] | normal angiogenesis is induced but abnormal angiogenesis is suppressed; also recorded: the abnormal angiogenesis was decreased and the normal blood vessels were observed | the same advantageous effect | – | – |
| DEGKRGDGDACEGDS [SEQ ID NO: 6, smaller peptide than the TP508; chemical synthesis] | – | – | had a similar effect as the TP508 | normal angiogenesis is induced but abnormal angiogenesis is suppressed and the vascular leakage is decreased; also recorded: the abnormal angiogenesis, avascular lesion and vascular leakage were decreased and the normal blood vessels were observed |
| Thrombin [SEQ ID NO: 4] | – | – | had a similar effect as the TP508 | normal angiogenesis is induced but abnormal angiogenesis is suppressed and the vascular leakage is decreased; also recorded: the abnormal angiogenesis, avascular lesion and vascular leakage were decreased and the normal blood vessels were observed |
| Cyclo(-Arg-Gly-Asp-D-Phe-Val) (cyclo(RGD[dF]V)) [SEQ ID NO: 1] | normal angiogenesis is induced but abnormal angiogenesis is suppressed; also recorded: the abnormal angiogenesis was decreased and the normal blood vessels were observed | the same advantageous effect | – | – |

Reference: patent US8372811B2, “Composition for treating retinopathy or glaucoma comprising thrombin derived peptides” (Eyegene, Inc., priority 2007, dated 2013)
